These are literature values, as cited in US20050209551A1, “Detoxification and breast health preparations” (priority 2004, published 2005).

Molecules are shown by their SMILES.

Series [1] relates to precancerous lesions of the cervix and laryngeal papillomas. The following applies: pathologies with a human papillomavirus (HPV); reported.
For series [2] the following is noted: oral administration.

Turning to `c1ccc2c(Cc3c[nH]c4ccccc34)c[nH]c2c1` [DIM, 3,3′-diindolylmethane], the “clinical effectiveness in treating precancerous lesions of the cervix and laryngeal papillomas” value in series [1] is reported as “clinically effective”.

Take `O=C(O)CN(CCN(CC(=O)O)CC(=O)O)CC(=O)O` [EDTA, ethylene-diaminetetraacetic acid]: the “fraction of EDTA absorbed when administered by mouth” value in series [2] (general consensus) was “about five”. The “unabsorbed EDTA that remains within the digestive tract” value in series [2] (reported) is given as 95%.

With `OCc1c[nH]c2ccccc12` [Example I3C, indole-3-carbinol], in series [1], the “clinical effectiveness in treating precancerous lesions of the cervix and laryngeal papillomas” value is “clinically effective”.
